Earlier results as cited in patent US20130028962A1, “Triggered Cargo Release from Nanoparticle Stabilized Liposomes” (THE REGENTS OF THE UNIVERSITY OF CALIFORNIA, priority 2010, published 2013).

System: MRSA bacteria
Conditions: against MRSA bacteria

**Q.** For CN[C@H](CC(C)C)C(=O)N[C@H]1C(=O)N[C@@H](CC(N)=O)C(=O)N[C@H]2C(=O)N[C@H]3C(=O)N[C@H](C(=O)N[C@H](C(=O)O)c4cc(O)cc(O)c4-c4cc3ccc4O)[C@H](O)c3ccc(c(Cl)c3)Oc3cc2cc(c3O[C@@H]2O[C@H](CO)[C@@H](O)[C@H](O)[C@H]2O[C@H]2C[C@](C)(N)[C@H](O)[C@H](C)O2)Oc2ccc(cc2Cl)[C@H]1O [vancomycin], which “minimal inhibitory concentration (MIC)” value is on record?
**A.** Its value is “about 2 μg/mL”.
